Here are results for 13 compounds from ChEMBL document CHEMBL1201862, “PubChem BioAssay data set” (2004).

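Protocol summary: plate cells (96-well), add compound at 5 concentrations, incubate 48 h, interpolate endpoints linearly. GI50 marks 50% less growth.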 Activity calls are given as the source filed them. No stated cut-off is given here; in the data, active = GI50 up to about 1.1 µM and inactive = higher.

Among the test systems are K562; DMS-114; Malme-3M; NCI-H460; EKVX; KM12; SNB-75; HOP-62; M19-MEL; Hs-578T; OVCAR-8; MDA-MB-231; PC-3; RPMI-8226; MDA-MB-435; MDA-N; NCI-H226; T47D; IGROV-1; 786-0.
Assay in all cases: NCI anticancer screen, dose series, 48 h

On to `Cc1cccc(NC(N)=S)c1`, for which the GI50 with K562, in the experiment with DMS-114, with Malme-3M, with NCI-H460, with EKVX and with KM12 was > 100 µM (inactive) in each case. For the same compound, the GI50 in the experiment on SNB-75, with HOP-62 and in the experiment on M19-MEL was > 100 µM (inactive) in each case.
In the case of `COc1ccc(C(=C2C=CC=C2)c2ccc(OC)cc2)cc1`, the GI50 is 22.2 µM (inactive) in the experiment with K562; 33.6 µM (inactive) in the experiment on Hs-578T; 44.5 µM (inactive) in the experiment on OVCAR-8; 28.8 µM (inactive) with Malme-3M; 16.1 µM (inactive) in the experiment on MDA-MB-231; 47.5 µM (inactive) with PC-3. Besides, the GI50 with NCI-H460 is 32 µM (inactive); in the experiment on RPMI-8226, 0.783 µM (active); in the experiment on MDA-MB-435 it was 35.8 µM (inactive); with EKVX it was 41 µM (inactive); in the experiment on MDA-N, 37 µM (inactive); in the experiment with KM12 it was 45.9 µM (inactive). The GI50 is 50.5 µM (inactive) with NCI-H226; 59 µM (inactive) with SNB-75; 24.2 µM (inactive) in the experiment with T47D; 39.9 µM (inactive) in the experiment on HOP-62; 52 µM (inactive) with IGROV-1.
As to `COc1ccc(-c2c3c(nc4[nH]c(=S)[nH]c(=S)c24)CCCC3)cc1OC`, the GI50 is 30 µM (inactive) in the experiment on K562; 13.3 µM (inactive) in the experiment with Hs-578T; 23.9 µM (inactive) in the experiment with OVCAR-8; 29 µM (inactive) in the experiment on Malme-3M; 18 µM (inactive) with MDA-MB-231; 24 µM (inactive) with PC-3. The GI50 in the experiment with NCI-H460 is 18.5 µM (inactive); in the experiment on RPMI-8226, 21 µM (inactive); in the experiment with MDA-MB-435, 34.5 µM (inactive); in the experiment with EKVX, 22.4 µM (inactive); with MDA-N, 34.3 µM (inactive); with KM12, 30.9 µM (inactive). For the same compound, the GI50 in the experiment with SNB-75 was 14.3 µM (inactive); in the experiment on T47D, 25.9 µM (inactive); in the experiment with HOP-62, 19.6 µM (inactive); in the experiment with IGROV-1 it was 29.9 µM (inactive).
With `CCOC(=O)C1(C(C)=O)OC(=O)c2cnccc21` (centres undefined), the GI50 in the experiment on K562, in the experiment on Hs-578T, in the experiment with OVCAR-8, in the experiment with Malme-3M, in the experiment with MDA-MB-231 and with PC-3 was > 100 µM (inactive) throughout. In addition, the GI50 in the experiment with NCI-H460, in the experiment with RPMI-8226, in the experiment with MDA-MB-435, in the experiment on EKVX, in the experiment on MDA-N and in the experiment with KM12 was > 100 µM (inactive) in each case. The GI50 in the experiment on NCI-H226, in the experiment on SNB-75, with T47D, with 786-0 and with IGROV-1 was > 100 µM (inactive) throughout.
As for `CN(C)/N=C(/CC(O)(C(F)(F)F)C(F)(F)F)c1ccc([N+](=O)[O-])cc1`, the GI50 with K562, in the experiment with Hs-578T, with OVCAR-8, with Malme-3M, in the experiment on MDA-MB-231 and in the experiment with PC-3 was > 100 µM (inactive) each time. In addition, the GI50 in the experiment on NCI-H460, in the experiment with RPMI-8226, in the experiment with MDA-MB-435, with EKVX, in the experiment with MDA-N and in the experiment with KM12 was > 100 µM (inactive) in each case. Also, the GI50 in the experiment on NCI-H226 was > 100 µM (inactive); with SNB-75, > 100 µM (inactive); in the experiment on T47D, > 100 µM (inactive); with HOP-62, > 100 µM (inactive); in the experiment with 786-0, > 100 µM (inactive); in the experiment on IGROV-1 it was 80.5 µM (inactive).
Turning to `COP(=O)(OC)C(Cc1c[nH]c2ccccc12)NC(=O)OCc1ccccc1` (centres undefined), the GI50 in the experiment on K562, in the experiment with Hs-578T, in the experiment on OVCAR-8, in the experiment on MDA-MB-231, in the experiment on PC-3 and in the experiment on NCI-H460 was > 100 µM (inactive) each time. Also, the GI50 in the experiment with RPMI-8226 was > 100 µM (inactive); with MDA-MB-435, > 100 µM (inactive); with MDA-N it was > 100 µM (inactive); in the experiment on NCI-H226, > 100 µM (inactive); with SNB-75, > 100 µM (inactive); with T47D it was 71.3 µM (inactive). The GI50 with HOP-62 and in the experiment with IGROV-1 was > 100 µM (inactive) each time.
As to `CCOC(=O)C1=C(C)N(c2ccc(Cl)cc2)C2(O)C=CC(Nc3ccc(Cl)cc3)=C3C(=O)N(c4ccccc4)C(=O)C312` (centres undefined), the GI50 was 3.23 µM (inactive) with K562; 5.51 µM (inactive) in the experiment on Hs-578T; 3.64 µM (inactive) in the experiment on OVCAR-8; 7.71 µM (inactive) with Malme-3M; 4.25 µM (inactive) in the experiment on MDA-MB-231; 2.94 µM (inactive) in the experiment with PC-3. For the same compound, the GI50 in the experiment with NCI-H460 was 2.11 µM (inactive); in the experiment on RPMI-8226, 1.32 µM (inactive); with MDA-MB-435, 1.78 µM (inactive); with KM12, 4.34 µM (inactive); in the experiment on SNB-75, 4.18 µM (inactive); in the experiment with T47D it was 3.84 µM (inactive). The GI50 in the experiment with HOP-62 is 1.63 µM (inactive); in the experiment with IGROV-1, 5.36 µM (inactive).
As to `CC1=Nc2nc(Cl)cn2C(=O)C1(Cl)Cl`, the GI50 with K562, with Hs-578T, in the experiment on OVCAR-8, in the experiment on Malme-3M, in the experiment with MDA-MB-231 and in the experiment with PC-3 was > 10 µM (inactive) throughout. Besides, the GI50 in the experiment with NCI-H460, with RPMI-8226, in the experiment on MDA-MB-435, with EKVX, in the experiment with MDA-N and with KM12 was > 10 µM (inactive) throughout. Moreover, the GI50 with NCI-H226, with SNB-75, with T47D, in the experiment on HOP-62 and in the experiment on IGROV-1 was > 10 µM (inactive) throughout.
Regarding `CCOC(=O)CN(Cn1cncn1)Cn1cncn1`, the GI50 was 40.6 µM (inactive) in the experiment with K562; 24.7 µM (inactive) in the experiment with OVCAR-8; 52 µM (inactive) in the experiment with Malme-3M; 24.9 µM (inactive) with NCI-H460; 55.2 µM (inactive) in the experiment on RPMI-8226; 43.8 µM (inactive) in the experiment with EKVX. For the same compound, the GI50 in the experiment with KM12 is 20.2 µM (inactive); in the experiment with NCI-H226, 28.1 µM (inactive); in the experiment on SNB-75 it was 20.6 µM (inactive); in the experiment on HOP-62, > 100 µM (inactive); with 786-0 it was 58.6 µM (inactive); in the experiment with M19-MEL, 38.7 µM (inactive). Moreover, the GI50 with IGROV-1 was > 100 µM (inactive).
As to `C/C(N)=N/OCc1nc(C)no1`, the GI50 in the experiment on K562, in the experiment with Hs-578T, with OVCAR-8, in the experiment with MDA-MB-231, in the experiment on PC-3 and in the experiment on NCI-H460 was > 100 µM (inactive) each time. Besides, the GI50 with RPMI-8226, with MDA-MB-435, with EKVX, in the experiment on MDA-N, in the experiment with KM12 and with SNB-75 was > 100 µM (inactive) each time. Further, the GI50 in the experiment on T47D, in the experiment on HOP-62 and with 786-0 was > 100 µM (inactive) throughout.
Consider `CC1CC2C3CCC4=CC(=O)C=CC4(C)C3(F)C(O)CC2(C)C1(O)C(=O)COP(=O)(O)O` (centres undefined), for which the GI50 in the experiment with K562, in the experiment on Hs-578T, with OVCAR-8, in the experiment with Malme-3M, in the experiment on MDA-MB-231 and in the experiment on PC-3 was > 100 µM (inactive) in each case. Also, the GI50 in the experiment with NCI-H460 was > 100 µM (inactive); in the experiment with RPMI-8226, 3.42 µM (inactive); with MDA-MB-435, > 100 µM (inactive); with EKVX it was > 100 µM (inactive); in the experiment on MDA-N it was 8.18 µM (inactive); in the experiment on KM12, > 100 µM (inactive). Also, the GI50 with NCI-H226, in the experiment on SNB-75, with T47D, in the experiment with HOP-62, in the experiment on M19-MEL and in the experiment on IGROV-1 was > 100 µM (inactive) throughout.
With `Oc1[nH]c(Nc2cccc(Br)c2)nc2ncnc1-2`, the GI50 is 26.5 µM (inactive) in the experiment on K562; 55.3 µM (inactive) in the experiment on Hs-578T; > 100 µM (inactive) with OVCAR-8; > 100 µM (inactive) in the experiment on Malme-3M; 55.6 µM (inactive) with MDA-MB-231; 98.2 µM (inactive) in the experiment with PC-3. Moreover, the GI50 with NCI-H460 is > 100 µM (inactive); in the experiment with RPMI-8226 it was > 100 µM (inactive); in the experiment with MDA-MB-435, 93.5 µM (inactive); in the experiment on EKVX, > 100 µM (inactive); in the experiment with MDA-N, > 100 µM (inactive); in the experiment on KM12, > 100 µM (inactive). Also, the GI50 in the experiment with NCI-H226 is > 100 µM (inactive); in the experiment on SNB-75 it was 57.7 µM (inactive); with T47D, 98.4 µM (inactive); in the experiment on 786-0 it was > 100 µM (inactive); with IGROV-1, > 100 µM (inactive).
`Nc1ccn(C2OC(CO)C(O)C2O)c(=O)c1` (centres undefined): the GI50 was 137 µM (inactive) with OVCAR-8; 114 µM (inactive) with Malme-3M; 38.7 µM (inactive) in the experiment on NCI-H460; 174 µM (inactive) in the experiment on RPMI-8226; > 625 µM (inactive) in the experiment with KM12; > 625 µM (inactive) in the experiment on NCI-H226. Also, the GI50 is 583 µM (inactive) in the experiment with SNB-75, 136 µM (inactive) in the experiment with HOP-62 and > 625 µM (inactive) in the experiment on IGROV-1.
